{"source": "patent US20240383904A1", "about": "“HETEROCYCLIC COMPOUNDS” (Hoffmann-La Roche Inc., priority 2021, published 2024)", "target": "T1, MAGL (Homo sapiens, UniProt Q99685)", "T1 sequence (Q99685 1-303)": "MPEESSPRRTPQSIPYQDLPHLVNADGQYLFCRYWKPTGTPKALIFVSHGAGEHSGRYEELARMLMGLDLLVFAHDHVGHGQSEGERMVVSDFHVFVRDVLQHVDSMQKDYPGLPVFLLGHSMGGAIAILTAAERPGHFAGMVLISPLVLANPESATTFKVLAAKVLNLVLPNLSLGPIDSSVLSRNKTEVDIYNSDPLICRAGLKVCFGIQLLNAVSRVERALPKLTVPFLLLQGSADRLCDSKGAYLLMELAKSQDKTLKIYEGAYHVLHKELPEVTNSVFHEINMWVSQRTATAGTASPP", "assay": "2-AG assay: MAGL inhibitory activity by hydrolysis of 2-arachidonoylglycerol to arachidonic acid, followed by mass spectrometry", "format": "biochemical", "key": {"[1]": {"details": "15 min preincubation, 30 min reaction at RT, 8 μM 2-arachidonoylglycerol"}}}
{"smiles": "O=C1CCC2(CN(C(=O)N3CC4(CC(Cc5n[nH]c(C(F)(F)F)n5)C4)C3)C2)N1", "note": "[Example 333, 2-[6-[[5-(trifluoromethyl)-1H-1,2,4-triazol-3-yl]methyl]-2-azaspiro[3.3]heptane-2-carbonyl]-2,5-diazaspiro[3.4]octan-6-one]", "values": [{"measurement": "IC50", "setting": "[1]", "result": 88.1, "unit": "nM"}]}
{"smiles": "O=C1NC2(CO1)CN(C(=O)N1CC3(CN(Cc4cnc(C(F)(F)F)nc4)C3)C1)C2", "note": "[Example 161, 2-[6-[[2-(trifluoromethyl)pyrimi-din-5-yl]methyl]-2,6-diazaspiro[3.3]heptane-2-carbonyl]-7-oxa-2,5-diazaspiro[3.4]octan-6-one]", "values": [{"measurement": "IC50", "setting": "[1]", "result": 51.5, "unit": "nM"}]}
{"smiles": "O=C1COCC2(CN(C(=O)N3CC4(CC(OCC5(C(F)(F)F)CC5)C4)C3)C2)N1", "note": "[Example 140, 2-[6-[[1-(trifluoromethyl)cyclopro-pyl]methoxy]-2-azaspiro[3.3]heptane-2-carbonyl]-8-oxa-2,5-diazaspiro[3.5]nonan-6-one]", "values": [{"measurement": "IC50", "setting": "[1]", "result": 78.9, "unit": "nM"}]}
{"smiles": "O=C1COCC2(CN(C(=O)N3CC4(C3)CN(S(=O)(=O)c3cccc(OC(F)(F)F)c3)C4)C2)N1", "note": "[Example 86, 2-[2-[3-(trifluoromethoxy)phenyl]sulfony1-2,6-diazaspiro[3.3]heptane-6-carbonyl]-8-oxa-2,5-diazaspiro[3.5]nonan-6-one]", "values": [{"measurement": "IC50", "setting": "[1]", "result": 984, "unit": "nM"}]}
{"smiles": "O=C1NC2(CO1)CN(C(=O)N1CC3(CC(Cc4ccc(OC(F)(F)F)cn4)C3)C1)C2", "note": "[Example 26, 2-[6-[[5-(trifluoromethoxy)-2-pyridyl]methyl]-2-azaspiro[3.3]heptane-2-carbonyl]-7-oxa-2,5-diazaspiro[3.4]octan-6-one]", "values": [{"measurement": "IC50", "setting": "[1]", "result": 0.11, "unit": "nM"}]}
{"smiles": "O=C1NC2(CO1)CN(C(=O)N1CC3(CC[C@@H](Cc4cnc(C(F)(F)F)cn4)C3)C1)C2", "note": "[Example 113, 2-[(6R)-6-[[5-(trifluoromethyl)pyrazin-2-yl]methyl]-2-azaspiro[3.4]octane-2-carbonyl]-7-oxa-2,5-diazaspiro[3.4]octan-6-one]", "values": [{"measurement": "IC50", "setting": "[1]", "result": 0.62, "unit": "nM"}]}
{"smiles": "O=C1NC2(CO1)CN(C(=O)N1CC3(CC(Cc4ccc(F)cc4F)C3)C1)C2", "note": "[Example 23, 2-[6-(2,4-difluorobenzyl)-2-azaspiro[3.3]heptane-2-carbonyl]-7-oxa-2,5-diazaspiro[3.4]octan-6-one]", "values": [{"measurement": "IC50", "setting": "unit nM", "result": "< 5", "unit": "nM"}]}
{"smiles": "Cn1cc(CC2CC3(C2)CN(C(=O)N2CC4(CCC(=O)N4)C2)C3)c(C(F)(F)F)n1", "note": "[Example 169, 2-[6-[[1-methyl-3-(trifluoromethyl)pyrazol-4-yl]methyl]-2-azaspiro[3.3]heptane-2-carbonyl]-2,5-diazaspiro[3.4]octan-6-one]", "values": [{"measurement": "IC50", "setting": "[1]", "result": 2.35, "unit": "nM"}]}
{"smiles": "O=C1CCCC2(CN(C(=O)N3CC4(CC(Cc5cccc(S(=O)(=O)C(F)(F)F)c5)C4)C3)C2)N1", "note": "[Example 186, 2-[6-[[3-(trifluoromethylsulfonyl)phenyl]methyl]-2-azaspiro[3.3]heptane-2-carbonyl]-2,5-diazaspiro[3.5]nonan-6-one]", "values": [{"measurement": "IC50", "setting": "[1]", "result": 95, "unit": "nM"}]}
{"smiles": "CC1(NS(=O)(=O)N2CC3(CN(C(=O)N4CC5(COC(=O)N5)C4)C3)C2)CC1", "note": "[Example 193, N-(1-methylcyclopropyl)-6-(6-oxo-7-oxa-2,5-diazaspiro[3.4]octane-2-carbonyl)-2,6-diazaspiro[3.3]heptane-2-sulfonamide]", "values": [{"measurement": "IC50", "setting": "[1]", "result": 65.3, "unit": "nM"}]}
{"smiles": "O=C1CCC2(CN(C(=O)N3CC4(CC(Cc5cc(C(F)F)[nH]n5)C4)C3)C2)N1", "note": "[Example 257, 2-[6-[[5-(difluoromethyl)-1H-pyrazol-3-yl]methyl]-2-azaspiro[3.4]heptane-2-carbonyl]-2,5-diazaspiro[3.4]octan-6-one]", "values": [{"measurement": "IC50", "setting": "[1]", "result": 16.5, "unit": "nM"}]}
{"smiles": "O=C1NCC2(CN(C(=O)N3CC4(CCC(Cc5ccc(C(F)(F)F)cn5)CC4)C3)C2)N1", "note": "[Example 45, 2-[7-[[5-(trifluoromethyl)-2-pyridyl]methyl]-2-azaspiro[3.5]nonane-2-carbonyl]-2,5,7-triazaspiro[3.4]octan-6-one]", "values": [{"measurement": "IC50", "setting": "[1]", "result": 26.3, "unit": "nM"}]}
{"smiles": "O=C1CCC2(CN(C(=O)N3CC4(CC(Cc5cncc(S(=O)(=O)C(F)(F)F)c5)C4)C3)C2)N1", "note": "[Example 252, 2-[6-[[5-(trifluoromethylsulfonyl)-3-pyridyl]methyl]-2-azaspiro[3.3]heptane-2-carbonyl]-2,5-diazaspiro[3.4]octan-6-one]", "values": [{"measurement": "IC50", "setting": "[1]", "result": 9.83, "unit": "nM"}]}
